Calls of active or inactive are those of the source.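 The calls were made as follows: active = AC50 no more than tenfold above the top dose tested, or full inhibition at every dose with a flat fit (cut at about 19 µM in these data); inconclusive = flat curve fit with inhibition between 30% and 70%, or poor fit; inactive = AC50 more than tenfold above the top dose tested.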 Some results are limits rather than exact numbers.

Drawing on PubChem BioAssay AID463074 (Broad Institute, 2010), this text covers AC50 for 37 compounds.

This experiment deals with HMLE_sh_eGFP viability, CellTiter-Glo luminescence, 72 h. Kind of experiment: viability loss of HMLE_sh_eGFP cells – cell-based, luminescence, counter-screen for HMLE_sh_ECad selective toxicity project, dose response (AID 463074).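 Also: counterscreen control line to flag general toxicity for the HMLE_sh_ECad screen; potency for loss of viability as luminescence drops below DMSO wells.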
On to `CC1CC1C(=O)N1CCN(S(=O)(=O)c2cc(C(F)(F)F)cc(C(F)(F)F)c2)CC1` (configuration not stated), for which the AC50 – broadly, the concentration at which the activity in the assay is half-maximal – was 6.27 µM. Regarding `COc1ccc(C(=O)NNc2ccccc2)cc1OC`, the AC50 was 1.83 µM. With `CC(=O)c1ccc(-c2cc([C@H]3[C@H]4C=CC[C@@H](C)[C@@H]4C(=O)N3Cc3ccccc3)ccc2F)cc1`, the half-maximal activity concentration (AC50) is 6.87 µM. As for `COc1cc(/C=C/C(=O)c2ccc3c(c2)OCO3)cc(Cl)c1O`, the concentration at half-maximal activity (AC50) was 10.8 µM. For the compound `Cc1ccn2c(NCc3ccccc3)c(-c3cccc(SC4CCCCC4)c3)nc2c1`, the AC50 was 4.45 µM. Take `Cc1nc2ccccc2n1/N=C/c1ccc([N+](=O)[O-])o1`: the AC50 was 13.9 µM.

As to `O=C1CC(c2cc(Br)ccc2F)c2cc3c(cc2N1)CCC3` (configuration not stated), the AC50 is 0.196 µM.

As to `O=[N+]([O-])c1c(NCCCO)cc(Sc2ccc(Cl)cc2)c2nonc12`, the half-maximal activity concentration (AC50) was 4.89 µM. Turning to `Cc1ccc(/C=C/C(=O)N2CC(C)CC(C)C2)o1` (configuration not stated), the AC50 is 17 µM.

Turning to `CCNc1nc(NCC)n2c(SC(C(=O)Nc3cc(Cl)cc(Cl)c3)c3ccccc3)nnc2n1` (configuration not stated), the AC50 is 3.52 µM.

As to `CCC/C=C(\CCC)C(NS(=O)(=O)c1ccc(C(F)(F)F)cc1)c1ccccc1` (configuration not stated), the half-maximal activity concentration (AC50) was 3.93 µM. For `COc1ccc(OC)c(C(=O)CSc2nccc(-c3ccc(Br)cc3)n2)c1`, the half-maximal activity concentration (AC50) was 1.31 µM. For the compound `C[C@@H]1CN([C@H](C)CO)C(=O)Cc2cc(NS(=O)(=O)c3ccc(Cl)cc3)ccc2O[C@H]1CN(C)Cc1ccc(C(F)(F)F)cc1`, the AC50 was 3.18 µM. In the case of `COc1ccccc1/C=C/C1(C(=O)NC2CCCC2)CC(=O)N1c1ccc(F)cc1` (configuration not stated), the half-maximal activity concentration (AC50) was 10.1 µM. With `C[C@@H]1O[C@@H](O[C@@H]2C=C3CC[C@@H]4C(CC[C@]5(C)[C@@H](c6ccc(=O)oc6)CC[C@]45O)[C@@]3(C)CC2)[C@H](O)[C@H](O)[C@H]1O` (some centres not stated), the AC50 was under 0.16 µM.

Take `O=C(/C=C/c1ccc2c(c1)OCCCO2)c1ccc2ccccc2c1O`: the AC50 was 12 µM. The same measure for `COc1cc(/C=C2/CCC/C(=C\c3cc(O)c(OC)c(Cl)c3)C2=O)cc(Cl)c1O`: 0.768 µM; for `COc1ccc(/C=N/Nc2cc(N3CCCC3)nc(N3CCCC3)n2)cc1`: 5.14 µM; for `CC/C(=N\Nc1ccccc1)c1c(O)n(-c2ccc(OC)cc2)c(=O)[nH]c1=O`: 2.13 µM. For `CCC(C)Sc1ccc(-c2nc3cnccn3c2NC2CCCCC2)cc1` (configuration not stated) the value was 3.73 µM; for `CC(O)CC(C(=O)NNc1ccccc1)C(=O)NNc1ccccc1` (configuration not stated), 1.87 µM. The same measure for `CC1=[N+](C)c2ccc3ccccc3c2C1(C)C`: > 19.5 µM (inactive). Regarding `CCCc1ccc(O)c(N=Cc2cc(Br)cc(OCC)c2O)c1`, the AC50 was 9.03 µM. As for `O=C(NNc1ccccc1)C(=O)N1CCCCC1`, the AC50 is 3.16 µM. As to `CCN(CC)c1ccc(C(=O)OCc2cc(=O)oc3cc(O)ccc23)cc1`, the AC50 is 16.2 µM. `CC(NC(=O)COC(=O)c1cc(NS(=O)(=O)c2ccc(Cl)c([N+](=O)[O-])c2)ccc1O)C1CC2CCC1C2` (configuration not stated): the AC50 is 3.52 µM. Take `Cc1cc(SCC(=O)N/N=C/c2ccc(O)cc2O)c(C)cc1Br`: the AC50 is 4.42 µM. For the compound `O=C(NCC1CCCCC1)c1cc2ccccc2cc1O`, the AC50 is 7.79 µM.

With `O=C(Nc1ccncc1)c1cc(-c2cccc(Br)c2)nc2ccccc12`, the half-maximal activity concentration (AC50) is 5.99 µM.

Consider `CNc1nc(SCc2ccccc2Cl)nc2c1CCCC2`, for which the AC50 is 8.77 µM.

Consider `O=C(CC1NCCc2ccccc21)Nc1ccc(Oc2ccccc2)cc1` (configuration not stated), for which the AC50 was 7.46 µM. Take `Cc1ccc(N=Nc2ccc(O)cc2)c(Br)c1`: the half-maximal activity concentration (AC50) was 8.42 µM.

Regarding `Cc1cc(Nc2cccc([N+](=O)[O-])c2)n2c(nc3ccccc32)c1C#N`, the AC50 is 9.61 µM.

Turning to `CCCCCC(=O)Nc1nc(C)c(-c2csc(Nc3cc(OC)ccc3OC)n2)s1`, the AC50 was 2.11 µM. On to `CCCOc1ccc(C(=O)C(CN2CCCC2)c2ccccc2)cc1` (configuration not stated), for which the AC50 was 3.3 µM.

On to `CC(C)c1ccc(NC(=O)c2snc3ccc(Cl)cc23)cc1`, for which the AC50 was 3.62 µM.

As for `O=C(CSc1ncnc2nc[nH]c12)Nc1nnc(SCc2ccc(Cl)c(Cl)c2)s1`, the AC50 was 7.45 µM.
